Experimental data from ChEMBL document CHEMBL6092167, “Phosphorylation as an Effective Tool to Improve Stability and Reduce Toxicity of Antimicrobial Peptides” (J Med Chem, 2024).
Converted amounts (≈) assume the structure as drawn. The source made the active and inactive calls. No cut-off for these calls is given here. Non-standard residues stand in square brackets, D forms with d. Residues, ends and D or L forms follow the SMILES beside them. Bip = N[C@@H](Cc1ccc(-c2ccccc2)cc1)C(=O)O; pY = N[C@@H](Cc1ccc(OP(=O)(O)O)cc1)C(=O)O

Assays:
[1] = test system: Cell membrane; test: Induction of inner membrane permeabilization in Escherichia coli ML-35 assessed as increase in […] intensity by ONPG dye based microplate reader assay; assay type: subcellular
[2] = test system: Cell membrane; test: Induction of cell membrane disruption in Staphylococcus aureus ATCC 25923 at 2 times MIC incubated for 2 hrs by SEM analysis; assay type: subcellular
[3] = test system: Escherichia coli; test: Antibacterial activity against Escherichia coli ATCC 25922 incubated for 18 to 24 hrs by broth microdilution method; assay type: functional; conditions: time 18-24 hrs
[4] = test system: Klebsiella pneumoniae; test: Antibacterial activity against Klebsiella pneumoniae ATCC 700603 incubated for 18 to 24 hrs by broth microdilution method; assay type: functional; conditions: time 18-24 hrs
[5] = test system: Pseudomonas aeruginosa; test: Antibacterial activity against Pseudomonas aeruginosa ATCC 27853 incubated for 18 to 24 hrs by broth microdilution method; assay type: functional; conditions: time 18-24 hrs
[6] = test system: Klebsiella pneumoniae; test: Synergistic antibacterial activity against Klebsiella pneumoniae ATCC 700603 assessed as fractional inhibitory concentration index at 1/4 to 4 times MIC incubated for 18 to 24 hrs in presence of polymyxin B by checkerboard assay; assay type: functional; conditions: time 18-24 hrs
[7] = test system: Cell membrane; test: Induction of membrane damage in Pseudomonas aeruginosa ATCC 27853 assessed as change in membrane shape at 2 times MIC incubated for 30 to 120 mins by SEM analysis; assay type: subcellular; conditions: time 30-120 min
[8] = test system: Acinetobacter baumannii; test: Antibacterial activity against Acinetobacter baumannii ATCC 19606 incubated for 18 to 24 hrs by broth microdilution method; assay type: functional; conditions: time 18-24 hrs
[9] = test system: Escherichia coli; test: Antibiofilm activity against Escherichia coli ATCC 25922 assessed as eradication of preformed biofilms at 2 to 4 times MIC incubated for 24 hrs by crystal violet staining based assay; assay type: functional, organism-based
[10] = test system: Klebsiella pneumoniae; test: Durg resistance development in Klebsiella pneumoniae ATCC 700603 measured after 20 passage; assay type: functional, organism-based
[11] = test system: Klebsiella pneumoniae; test: Antibiofilm activity against Klebsiella pneumoniae ATCC 700603 assessed as eradication of preformed biofilms incubated for 24 hrs by crystal violet staining based assay; assay type: functional, organism-based
[12] = test system: Staphylococcus aureus; test: Antibacterial activity against methicillin resistant Staphylococcus aureus ATCC 33591 incubated for 18 to 24 hrs by broth microdilution method; assay type: functional; conditions: time 18-24 hrs
[13] = test system: Klebsiella pneumoniae; test: Additive antibacterial activity against Klebsiella pneumoniae ATCC 700603 assessed as fractional inhibitory concentration index at 1/4 to 4 times MIC incubated for 18 to 24 hrs in presence of rifampicin by checkerboard assay; assay type: functional; conditions: time 18-24 hrs
[14] = target: Trypsin (Homo sapiens, UniProt P07477+P07478+P35030); test: Stability of compound assessed as trypsin (unknown origin) mediated compound degradation; assay type: ADME, protein assay
[15] = test system: Cell membrane; test: Induction of cell membrane disruption in Pseudomonas aeruginosa ATCC 27853 at 2 times MIC incubated for 2 hrs by SEM analysis; assay type: subcellular
[16] = test system: Pseudomonas aeruginosa; test: Inhibition of biofilm formation in Pseudomonas aeruginosa ATCC 27853 incubated for 24 hrs by crystal violet staining based assay; assay type: functional, organism-based
[17] = test system: Klebsiella pneumoniae; test: Additive antibacterial activity against Klebsiella pneumoniae ATCC 700603 assessed as fractional inhibitory concentration index at 1/4 to 4 times MIC incubated for 18 to 24 hrs in presence of kanamycin by checkerboard assay; assay type: functional; conditions: time 18-24 hrs
[18] = test system: Pseudomonas aeruginosa; test: Antibiofilm activity against Pseudomonas aeruginosa ATCC 27853 assessed as eradication of preformed biofilms incubated for 24 hrs by crystal violet staining based assay; assay type: functional, organism-based
[19] = test system: Escherichia coli; test: Antibacterial activity against Escherichia coli 850 incubated for 18 to 24 hrs by broth microdilution method; assay type: functional; conditions: time 18-24 hrs
[20] = test system: Staphylococcus aureus; test: Antibiofilm activity against Staphylococcus aureus ATCC 25923 assessed as eradication of preformed biofilms incubated for 24 hrs by crystal violet staining based assay; assay type: functional, organism-based
[21] = target: Chymotrypsin (Homo sapiens, UniProt Q99895+P17538+P40313+Q6GPI1); test: Stability of compound assessed as chymotrypsin (unknown origin) mediated compound degradation; assay type: ADME, protein assay
[22] = test system: Klebsiella pneumoniae; test: Antibiofilm activity against Klebsiella pneumoniae ATCC 700603 assessed as eradication of preformed biofilms at 2 to 4 times MIC incubated for 24 hrs by crystal violet staining based assay; assay type: functional, organism-based
[23] = test system: Pseudomonas aeruginosa; test: Antibiofilm activity against Pseudomonas aeruginosa ATCC 27853 assessed as eradication of preformed biofilms at 4 times MIC incubated for 24 hrs by crystal violet staining based assay; assay type: functional, organism-based
[24] = test system: Staphylococcus aureus; test: Inhibition of biofilm formation in Staphylococcus aureus ATCC 25923 at 1 time MIC incubated for 24 hrs by crystal violet staining based assay; assay type: functional, organism-based
[25] = test system: Klebsiella pneumoniae; test: Inhibition of kanamycin resistance in Klebsiella pneumoniae ATCC 700603 at 1:1 compound: kanamycin molar ratio measured after 20 generation; assay type: functional, organism-based
[26] = test system: Klebsiella pneumoniae; test: Antibacterial activity against kanamycin resistant Klebsiella pneumoniae; assay type: functional
[27] = Toxicity in ip dosed BALB/c mouse measured after 14 days; assay type: organism-based; conditions: in vivo, time 14 day
[28] = test system: Klebsiella pneumoniae; test: Inhibition of rifampicin resistance in Klebsiella pneumoniae ATCC 700603 at 1:1 compound: rifampicin molar ratio measured after 20 generation; assay type: functional, organism-based
[29] = test system: Escherichia coli; test: Antibiofilm activity against Escherichia coli ATCC 25922 assessed as eradication of preformed biofilms incubated for 24 hrs by crystal violet staining based assay; assay type: functional, organism-based
[30] = test system: Staphylococcus aureus; test: Antibacterial activity against methicillin resistant Staphylococcus aureus 48 incubated for 18 to 24 hrs by broth microdilution method; assay type: functional; conditions: time 18-24 hrs
[31] = test system: Escherichia coli; test: Antibacterial activity against Escherichia coli 25922 assessed as interaction with LPS by measuring bacterial mortality at 2 times MIC preincubated with LPS for 1 hr followed by bacterial addition and measured after overnight by microplate reader assay; assay type: functional, organism-based
[32] = test system: Cell membrane; test: Induction of cytoplasmic membrane rupture in Staphylococcus aureus ATCC 25923 assessed as shrinkage at 2 times MIC incubated for 30 to 120 mins by SEM analysis; assay type: subcellular; conditions: time 30-120 min
[33] = test system: Cell membrane; test: Induction of inner membrane permeabilization in Escherichia coli ML-35 assessed as increase in […] intensity measured every 5 mins for 135 mins by ONPG dye based microplate reader assay; assay type: subcellular
[34] = test system: Cell membrane; test: Induction of outer membrane permeabilization in Escherichia coli ATCC 25922 assessed as increase in fluorescence intensity incubated for 1 min by NPN dye based microplate reader assay; assay type: subcellular
[35] = Cytotoxicity against HEK293T cells incubated for 1 hr by fluorescence based microplate reader assay; assay type: toxicity, cell-based, HEK-293T; conditions: human
[36] = test system: Klebsiella pneumoniae; test: Inhibition of biofilm formation in Klebsiella pneumoniae ATCC 700603 incubated for 24 hrs by crystal violet staining based assay; assay type: functional, organism-based
[37] = test system: Escherichia coli; test: Inhibition of biofilm formation in Escherichia coli ATCC 25922 incubated for 24 hrs by crystal violet staining based assay; assay type: functional, organism-based
[38] = test system: Cell membrane; test: Induction of cytoplasmic membrane rupture in Staphylococcus aureus ATCC 25923 assessed as adhesion at 2 times MIC incubated for 30 to 120 mins by SEM analysis; assay type: subcellular; conditions: time 30-120 min
[39] = test system: Cell membrane; test: Induction of cytoplasmic membrane rupture in Pseudomonas aeruginosa ATCC 27853 assessed as leakage of cellular content at 2 times MIC incubated for 30 to 120 mins by SEM analysis; assay type: subcellular; conditions: time 30-120 min
[40] = test system: Cell membrane; test: Induction of cytoplasmic membrane rupture in Staphylococcus aureus ATCC 25923 assessed as content leakage at 2 times MIC incubated for 30 to 120 mins by SEM analysis; assay type: subcellular; conditions: time 30-120 min
[41] = test system: Cell membrane; test: Induction of cytoplasmic membrane rupture in Pseudomonas aeruginosa ATCC 27853 assessed as blistering at 2 times MIC incubated for 30 to 120 mins by SEM analysis; assay type: subcellular; conditions: time 30-120 min
[42] = test system: Escherichia coli; test: Antibacterial activity against Escherichia coli 780 incubated for 18 to 24 hrs by broth microdilution method; assay type: functional; conditions: time 18-24 hrs

Q: Which Activity [1] does the source give for `CC(C)C[C@H](NC(=O)[C@H](CC(C)C)NC(=O)[C@H](Cc1ccc(OP(=O)(O)O)cc1)NC(=O)[C@H](CCCCN)NC(=O)[C@H](CC(C)C)NC(=O)[C@H](CCCNC(=N)N)NC(=O)[C@H](CCCCN)NC(=O)[C@H](Cc1ccc(-c2ccccc2)cc1)NC(=O)[C@H](CC(C)C)NC(=O)CN)C(N)=O` (H-GL[Bip]KRLK[pY]LL-NH2) here?
A: The Activity was “Time-dependent-effect; More Potent Than 1% Triton X-100 And Polymyxin B”.

Q: What about the Activity [2] of the same compound?
A: Its Activity is “Active; More Potent Than Polymyxin B And Vancomycin”.

Q: What about the MIC [3] of the same compound?
A: Its MIC is 8 µM (≈ 11.2 µg/mL).

Q: And the MIC [4]?
A: The MIC was 8 µM (≈ 11.2 µg/mL).

Q: And the MIC [5]?
A: The MIC was 16 µM (≈ 22.5 µg/mL).

Q: And the “fractional inhibitory concentration index (FICI)” value [6]?
A: The value was 0.5.

Q: What about the Activity [7] of the same compound?
A: The Activity was “Active”.

Q: And the MIC [8]?
A: The MIC was 4 µM (≈ 5.62 µg/mL).

Q: And the Activity [9]?
A: Its Activity is “Active”.

Q: What about the Activity [10] of the same compound?
A: Its Activity is “inactive”.

Q: And the Activity [11]?
A: Its Activity is “Dose-dependent-effect; Superior Activity Compared To Polymyxin B And Vancomycin”.

Q: And the MIC [12]?
A: The MIC was 8 µM (≈ 11.2 µg/mL).

Q: And the “fractional inhibitory concentration index (FICI)” value [13]?
A: The value was 0.563.

Q: What about the Stability [14] of the same compound?
A: The Stability was “Stable”.

Q: What about the Activity [15] of the same compound?
A: Its Activity is “Active; More Potent Than Polymyxin B And Vancomycin”.

Q: And the inhibition [16]?
A: The inhibition was “Dose-dependent-effect; Inhibition Comparable To Polymyxin B”.

Q: And the “fractional inhibitory concentration index (FICI)” value [17]?
A: The value was 0.563.

Q: And the Activity [18]?
A: The Activity was “Dose-dependent-effect; Superior Activity Compared To Polymyxin B And Vancomycin”.

Q: What about the MIC [19] of the same compound?
A: Its MIC is 8 µM (≈ 11.2 µg/mL).

Q: What about the Activity [20] of the same compound?
A: The Activity was “Dose-dependent-effect; Superior Activity Compared To Polymyxin B And Vancomycin”.

Q: And the Stability [21]?
A: The Stability was “Stable”.

Q: What about the Activity [22] of the same compound?
A: The Activity was “Active”.

Q: And the Activity [23]?
A: Its Activity is “Active”.

Q: What about the inhibition [24] of the same compound?
A: Its inhibition is “Active”.

Q: What about the inhibition [25] of the same compound?
A: The inhibition was “Active”.

Q: What about the MIC [26] of the same compound?
A: The MIC was 8 µM (≈ 11.2 µg/mL).

Q: What about the LD50 at 336 h [27] of the same compound?
A: The LD50 at 336 h was 283 mg/kg.

Q: What about the inhibition [28] of the same compound?
A: Its inhibition is “Active”.

Q: And the Activity [29]?
A: Its Activity is “Dose-dependent-effect; Superior Activity Compared To Polymyxin B And Vancomycin”.

Q: And the MIC [30]?
A: The MIC was 8 µM (≈ 11.2 µg/mL).

Q: And the Activity [31]?
A: The Activity was “Active; Activity Comparable To Polymyxin B”.

Q: And the Activity [32]?
A: The Activity was “Active”.

Q: What about the Activity [33] of the same compound?
A: The Activity was “Dose-dependent-effect; More Potent Than 1% Triton X-100 And Polymyxin B”.

Q: And the Activity [34]?
A: Its Activity is “Dose-dependent-effect”.

Q: And the CC50 at 1 h [35]?
A: The CC50 at 1 h was 168 µM.

Q: And the inhibition [36]?
A: The inhibition was “Dose-dependent-effect; Inhibition Comparable To Polymyxin B”.

Q: And the inhibition [37]?
A: The inhibition was “Dose-dependent-effect; Inhibition Comparable To Polymyxin B”.

Q: And the Activity [38]?
A: Its Activity is “Active”.

Q: And the Activity [39]?
A: The Activity was “Active”.

Q: What about the Activity [40] of the same compound?
A: Its Activity is “Active”.

Q: And the Activity [41]?
A: Its Activity is “Active”.

Q: What about the MIC [42] of the same compound?
A: Its MIC is 8 µM (≈ 11.2 µg/mL).
